Like-named read-outs stand apart in the source and are kept apart here.
Assays:
[1] = 10 nanomolar CE concentration in phosphate buffered saline
From the text: Microcon® Device Preparation:
The membrane to be tested was cut with the appropriate die cutter for the diameter of the device. The assembly consisted of placing the membrane on the support followed by addition of a gasket.
The collar is then placed on top of the assembly and sealed at a pressure varying from 65 to 100 psi.
Radioactive Analyte Preparation:
In order to prepare the analyte we used the following equation: [Concentration of Analyte]×[Volume needed for the experiment in microliter]×[Specific activity (Ci/mol)]×[1/Concentration (Ci/µl)].
The required volume of analyte was added to an appropriate volume of PBS. 200 µl of this preparation was used per sample.
Each membrane was tested in triplicate.
A first control plate, a Multiscreen® 96 well plate containing a heat sealed UPE (ultrahigh molecular weight polyethylene) composite cellulosic UF membrane, was used in a binding study.

[2] = Non-specific binding, second control plate with ultrafiltrate diluent added; conditions: 10 nanomolar CE in phosphate buffered saline
Procedure: Each membrane was tested in triplicate. Each Microcon® device was placed in the appropriately labeled retentate/filtrate vial. If the membrane to be tested needed to be pre-wetted before proceeding with this process, one needed to be sure that the membrane received a final rinse with PBS prior to testing. 200 µl of analyte solution was added to each Microcon® device and spun to dryness (20-30 minutes) in a microcentrifuge (14000-×g). The membranes were rinsed by adding 25 µl to each device and spun in the microcentrifuge (14000-×g) for 10 minutes.
To determine the amount of non-specific binding to the membrane, the collar and gasket were removed and the membrane placed in a glass scintillation vial. Three ml of scintillation cocktail was added to each vial. A 20 µl aliquot of the original solution was added to 3 ml of scintillation cocktail for reference. Radioactivity (in DPM) was determined by liquid scintillation counting using 1 minute counting periods and a stored quench curve as described by the equipment manufacturer.
The ratio of radioactivity found on the membrane compared to the total amount of radioactivity added was reported as a percentage and was used to assess CE NSB of the membrane being tested.

[3] = No support, table after second control plate (ultrafiltrate diluent)
[4] = Support: UPE composite, second control plate, ultrafiltrate diluent added

| SMILES | % Non Specific Binding ([1]; No support) [%] | % Non Specific Binding ([1]; Support: Non-woven 1) [%] | % Non Specific Binding ([1]; Support: Non-woven 2) [%] | % Non Specific Binding ([1]; Support: UPE composite) [%] | % Non Specific Binding [2, 3] [%] | % Non Specific Binding [2, 4] [%] |
| --- | --- | --- | --- | --- | --- | --- |
| C[C@H]1O[C@@H](O[C@H]2[C@@H](O)C[C@H](O[C@H]3[C@@H](O)C[C@H](O[C@H]4CC[C@@]5(C)[C@H](CC[C@@H]6[C@@H]5C[C@@H](O)[C@]5(C)[C@@H](C7=CC(=O)OC7)CC[C@]65O)C4)O[C@@H]3C)O[C@@H]2C)C[C@H](O)[C@@H]1O [digoxin] | 3 | 3 | 2 | 47 | 3 | 92 |
| OC[C@@H](O)[C@@H](O)[C@H](O)[C@H](O)CO [mannitol] | 2 | 2 | 1 | 1 | 1 | 2 |
| CN(Cc1cnc2nc(N)nc(N)c2n1)c1ccc(C(=O)N[C@@H](CCC(=O)O)C(=O)O)cc1 [methotrexate] | 4 | 0 | 3 | 16 | – | – |
| CC(C)NCC(O)COc1cccc2ccccc12 (centres unmarked) [proprananol] | 4 | 0 | 2 | 61 | – | – |
| C[C@]12CC[C@H]3[C@@H](CCC4=CC(=O)CC[C@@]43C)[C@@H]1CC[C@@H]2O [testosterone] | 4 | 1 | 1 | 101 | 3 | 80 |

Reference: patent US20050266577A1, “Ultrafiltration device for drug binding studies” (Millipore Corporation, priority 2002, published 2005)
